Literature values, collected in US20130116211A1, “Novel Salts Of Boswellic Acids And Selectively Enriched Boswellic Acids And Processes For The Same” (priority 2005, published 2013).

Experiments:
[1] = target: T1, 5-LOX (Homo sapiens, UniProt P09917)
T1 sequence (P09917 1-674): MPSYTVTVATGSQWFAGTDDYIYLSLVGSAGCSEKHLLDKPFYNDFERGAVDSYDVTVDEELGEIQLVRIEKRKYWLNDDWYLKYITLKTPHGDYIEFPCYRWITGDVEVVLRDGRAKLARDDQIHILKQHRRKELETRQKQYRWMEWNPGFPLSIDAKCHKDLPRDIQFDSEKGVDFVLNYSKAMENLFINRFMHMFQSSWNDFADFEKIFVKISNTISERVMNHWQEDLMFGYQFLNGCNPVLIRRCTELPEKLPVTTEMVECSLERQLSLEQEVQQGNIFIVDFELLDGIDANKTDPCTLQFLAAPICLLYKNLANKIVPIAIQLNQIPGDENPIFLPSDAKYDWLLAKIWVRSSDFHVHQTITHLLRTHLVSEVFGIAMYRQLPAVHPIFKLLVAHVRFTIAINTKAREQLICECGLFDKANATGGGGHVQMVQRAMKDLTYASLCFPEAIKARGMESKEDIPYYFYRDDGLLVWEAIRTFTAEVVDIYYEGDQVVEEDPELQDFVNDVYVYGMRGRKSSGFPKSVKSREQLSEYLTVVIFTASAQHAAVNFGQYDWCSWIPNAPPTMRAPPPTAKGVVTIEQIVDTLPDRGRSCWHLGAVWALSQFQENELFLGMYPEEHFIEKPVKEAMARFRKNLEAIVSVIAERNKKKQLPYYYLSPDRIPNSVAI

[2] = test system: symptoms of osteoarthritis; conditions: relieving the symptoms of osteoarthritis, double-blind studies

3-O-acetyl-11-keto-β-boswellic acid [AKBA]
mechanism of 5-LOX inhibition ([1]; binds in a calcium-dependent and reversible manner (Sailer 1998)): non-redox-type, non-competitive inhibitor | inhibitory activity against 5-LOX ([1]; compared among all the six boswellic acids (Sailer 1996)): most pronounced inhibitory activity

N[C@H]1C(O)O[C@H](CO)[C@@H](O)[C@@H]1O.O=S(=O)(O)O (stereo partly drawn) [glucosamine sulfate]
therapeutic effects versus non steroidal anti-inflammatory drugs [2]: comparable to or even better than
